Experimental data published in PMC6199744, “Development of Chemical Proteomics for the Folateome and Analysis of the Kinetoplastid Folateome” (ACS Infectious Diseases, 2018).
Like-named read-outs stand apart in the source and are kept apart here.

How the values were obtained:
Assay type in all cases: binding
[1] = target: T1, HeLa cell extract proteins (Homo sapiens, UniProt Q9BPW8)
T1 construct: endogenous in cells; host or cells: HeLa cell extract
T1 sequence (Q9BPW8 36-284): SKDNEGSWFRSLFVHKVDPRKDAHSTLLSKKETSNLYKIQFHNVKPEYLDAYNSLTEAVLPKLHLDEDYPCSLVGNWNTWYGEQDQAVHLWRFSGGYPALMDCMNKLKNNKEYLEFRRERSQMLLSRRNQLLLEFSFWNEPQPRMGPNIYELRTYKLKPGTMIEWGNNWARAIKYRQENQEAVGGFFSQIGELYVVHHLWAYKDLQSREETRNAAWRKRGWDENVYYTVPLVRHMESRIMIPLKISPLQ

[2] = target: T2, HeLa cell extract proteins (Homo sapiens, UniProt Q9NNW5)
T2 construct: endogenous in cells; host or cells: HeLa cell extract
T2 sequence (Q9NNW5 1-1121): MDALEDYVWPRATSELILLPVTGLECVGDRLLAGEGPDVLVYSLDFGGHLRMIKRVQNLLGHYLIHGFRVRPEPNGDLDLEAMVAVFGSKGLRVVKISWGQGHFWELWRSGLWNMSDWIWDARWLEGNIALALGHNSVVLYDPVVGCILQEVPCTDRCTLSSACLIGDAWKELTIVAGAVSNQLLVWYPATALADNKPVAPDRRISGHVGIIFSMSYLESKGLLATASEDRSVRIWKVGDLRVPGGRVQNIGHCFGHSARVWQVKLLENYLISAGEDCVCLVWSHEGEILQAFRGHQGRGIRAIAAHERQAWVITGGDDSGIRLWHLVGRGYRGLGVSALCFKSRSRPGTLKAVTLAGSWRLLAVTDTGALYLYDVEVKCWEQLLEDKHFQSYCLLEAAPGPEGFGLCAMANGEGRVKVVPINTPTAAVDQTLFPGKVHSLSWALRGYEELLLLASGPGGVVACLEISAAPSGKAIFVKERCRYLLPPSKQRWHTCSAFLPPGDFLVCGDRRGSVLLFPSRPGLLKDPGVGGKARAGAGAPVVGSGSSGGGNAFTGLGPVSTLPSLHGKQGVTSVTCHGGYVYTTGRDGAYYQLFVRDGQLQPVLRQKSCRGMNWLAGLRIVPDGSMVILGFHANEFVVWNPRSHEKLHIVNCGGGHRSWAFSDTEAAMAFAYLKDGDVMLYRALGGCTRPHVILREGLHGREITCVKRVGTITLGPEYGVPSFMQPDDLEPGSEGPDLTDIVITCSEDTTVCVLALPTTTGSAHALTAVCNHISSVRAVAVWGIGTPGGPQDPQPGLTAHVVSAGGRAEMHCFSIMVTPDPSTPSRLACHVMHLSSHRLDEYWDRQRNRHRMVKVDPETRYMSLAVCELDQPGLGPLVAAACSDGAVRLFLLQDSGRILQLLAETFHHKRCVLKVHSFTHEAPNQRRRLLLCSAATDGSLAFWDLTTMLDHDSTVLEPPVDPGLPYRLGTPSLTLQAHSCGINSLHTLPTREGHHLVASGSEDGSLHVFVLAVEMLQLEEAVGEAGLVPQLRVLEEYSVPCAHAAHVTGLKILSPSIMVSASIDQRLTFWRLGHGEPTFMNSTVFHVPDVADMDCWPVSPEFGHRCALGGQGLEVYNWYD

[3] = target: T3, HeLa cell extract proteins (Homo sapiens, UniProt P26640)
T3 construct: endogenous in cells; host or cells: HeLa cell extract
T3 sequence (P26640 1-1264): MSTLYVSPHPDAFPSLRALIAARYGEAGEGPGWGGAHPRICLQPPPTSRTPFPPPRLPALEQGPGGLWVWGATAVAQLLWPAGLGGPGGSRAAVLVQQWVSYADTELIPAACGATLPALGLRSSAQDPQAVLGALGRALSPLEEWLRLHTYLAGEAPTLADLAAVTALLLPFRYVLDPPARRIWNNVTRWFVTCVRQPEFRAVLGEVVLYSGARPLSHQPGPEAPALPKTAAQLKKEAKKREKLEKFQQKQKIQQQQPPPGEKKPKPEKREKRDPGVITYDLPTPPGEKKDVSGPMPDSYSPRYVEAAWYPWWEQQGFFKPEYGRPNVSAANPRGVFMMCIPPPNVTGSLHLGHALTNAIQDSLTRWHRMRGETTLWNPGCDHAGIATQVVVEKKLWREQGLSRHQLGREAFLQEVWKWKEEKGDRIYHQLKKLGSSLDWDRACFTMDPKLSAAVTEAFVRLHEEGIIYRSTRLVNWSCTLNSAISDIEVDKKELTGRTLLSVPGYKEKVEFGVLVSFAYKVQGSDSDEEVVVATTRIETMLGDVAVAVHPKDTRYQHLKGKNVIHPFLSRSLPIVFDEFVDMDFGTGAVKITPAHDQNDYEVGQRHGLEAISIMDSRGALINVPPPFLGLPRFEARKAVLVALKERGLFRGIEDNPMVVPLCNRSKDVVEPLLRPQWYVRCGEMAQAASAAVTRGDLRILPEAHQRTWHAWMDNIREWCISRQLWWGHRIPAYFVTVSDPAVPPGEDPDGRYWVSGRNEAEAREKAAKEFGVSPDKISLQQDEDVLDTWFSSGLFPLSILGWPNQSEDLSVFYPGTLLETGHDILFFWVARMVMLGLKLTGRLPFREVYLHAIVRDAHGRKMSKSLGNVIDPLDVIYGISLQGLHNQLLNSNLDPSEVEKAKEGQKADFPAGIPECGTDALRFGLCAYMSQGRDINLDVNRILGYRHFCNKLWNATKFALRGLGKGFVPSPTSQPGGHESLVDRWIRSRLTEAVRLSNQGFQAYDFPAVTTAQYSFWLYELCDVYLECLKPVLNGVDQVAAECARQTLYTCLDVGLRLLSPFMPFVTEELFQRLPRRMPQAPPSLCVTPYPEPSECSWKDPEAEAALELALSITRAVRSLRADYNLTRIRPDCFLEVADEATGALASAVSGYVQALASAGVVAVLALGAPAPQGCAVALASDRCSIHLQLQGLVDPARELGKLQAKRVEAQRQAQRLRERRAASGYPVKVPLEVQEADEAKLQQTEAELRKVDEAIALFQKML

[4] = target: T4, HeLa cell extract proteins (Homo sapiens, UniProt P26368); conditions: protein U2AF2; HeLa
T4 construct: endogenous in cells; host or cells: HeLa cell extract
T4 sequence (P26368 whole entry): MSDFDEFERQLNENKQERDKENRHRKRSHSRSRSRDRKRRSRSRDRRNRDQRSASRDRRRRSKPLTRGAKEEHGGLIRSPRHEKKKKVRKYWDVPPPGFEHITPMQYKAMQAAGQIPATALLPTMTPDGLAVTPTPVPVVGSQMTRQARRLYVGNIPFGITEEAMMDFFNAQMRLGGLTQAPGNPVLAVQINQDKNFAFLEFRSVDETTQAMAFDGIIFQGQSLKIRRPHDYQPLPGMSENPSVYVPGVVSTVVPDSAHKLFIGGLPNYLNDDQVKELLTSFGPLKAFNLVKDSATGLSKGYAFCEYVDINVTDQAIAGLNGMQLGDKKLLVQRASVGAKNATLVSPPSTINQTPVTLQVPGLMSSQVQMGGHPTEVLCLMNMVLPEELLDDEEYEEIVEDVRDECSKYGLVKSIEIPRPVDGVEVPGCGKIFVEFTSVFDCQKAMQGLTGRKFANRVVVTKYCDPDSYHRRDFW

**Q.** For Nc1nc2c(c(=O)[nH]1)N(C=O)C(CNc1ccc(C(=O)N[C@@H](CCC(=O)O)C(=O)O)cc1)CN2 (stereo partly drawn) [LEU, leucovorin], which “fold changes relative to vehicle control” value ([1]; HeLa, protein NIPSNAP1) is on record?
**A.** Its value is 1.02.

**Q.** And the “fold changes relative to vehicle control” value ([2]; HeLa, protein WDR6)?
**A.** Its value is 0.96.

**Q.** And the “fold changes relative to vehicle control” value ([3]; protein VARS, HeLa)?
**A.** The value was 0.86.

**Q.** What does the source list for Nc1nc2[nH]cc(CCc3ccc(C(=O)N[C@@H](CCC(=O)O)C(=O)O)cc3)c2c(=O)[nH]1 [PTX, pemetrexed]?
**A.** fold changes relative to vehicle control [1]: 1.03; fold changes relative to vehicle control [2]: 1.1; fold changes relative to vehicle control [3]: 0.84

**Q.** Which “fold changes relative to vehicle control” value [4] does the source give for CCCCCCOc1ccc(Cc2cnc(N)nc2N)cc1 [compound 1] here?
**A.** Its value is 1.12.

**Q.** With CCCCCCOc1cccc(Cc2cnc(N)nc2N)c1 [compound 2] as the molecule, how does the “fold changes relative to vehicle control” value [4] read?
**A.** Its value is 1.36.

**Q.** Nc1nc2cccc(-c3ccccc3)c2n1Cc1ccc(Cl)c(Cl)c1 [compound 3] was tested. Which “fold changes relative to vehicle control” value [4] did it give?
**A.** Its value is 0.93.

**Q.** What does the source list for NCCOCCOCC(=O)Nc1nc2ncc(CNc3ccc(C(=O)NC(CCC(=O)O)C(=O)O)cc3)nc2c(=O)[nH]1 (stereo not drawn) [compound 6]?
**A.** fold changes relative to vehicle control ([1]; HeLa, protein NIPSNAP1): 1.04; fold changes relative to vehicle control ([2]; HeLa, protein WDR6): 1.19; fold changes relative to vehicle control ([3]; protein VARS, HeLa): 1

**Q.** Which results are given for NCCCNc1ccc(C(=O)NC(CCC(=O)O)C(=O)O)cc1 (stereo not drawn) [compound 7]?
**A.** fold changes relative to vehicle control ([1]; HeLa, protein NIPSNAP1): 1.03; fold changes relative to vehicle control ([2]; HeLa, protein WDR6): 1.06; fold changes relative to vehicle control ([3]; protein VARS, HeLa): 0.91
